The target of assay [1] is T1, human c-mpl-Ba/F3 cells (Homo sapiens, UniProt P40238).
T1 construct: expressed in transfected cells; host or cells: Ba/F3 (murine pro-B cells) expressing human c-mpl
T1 sequence (P40238 26-635): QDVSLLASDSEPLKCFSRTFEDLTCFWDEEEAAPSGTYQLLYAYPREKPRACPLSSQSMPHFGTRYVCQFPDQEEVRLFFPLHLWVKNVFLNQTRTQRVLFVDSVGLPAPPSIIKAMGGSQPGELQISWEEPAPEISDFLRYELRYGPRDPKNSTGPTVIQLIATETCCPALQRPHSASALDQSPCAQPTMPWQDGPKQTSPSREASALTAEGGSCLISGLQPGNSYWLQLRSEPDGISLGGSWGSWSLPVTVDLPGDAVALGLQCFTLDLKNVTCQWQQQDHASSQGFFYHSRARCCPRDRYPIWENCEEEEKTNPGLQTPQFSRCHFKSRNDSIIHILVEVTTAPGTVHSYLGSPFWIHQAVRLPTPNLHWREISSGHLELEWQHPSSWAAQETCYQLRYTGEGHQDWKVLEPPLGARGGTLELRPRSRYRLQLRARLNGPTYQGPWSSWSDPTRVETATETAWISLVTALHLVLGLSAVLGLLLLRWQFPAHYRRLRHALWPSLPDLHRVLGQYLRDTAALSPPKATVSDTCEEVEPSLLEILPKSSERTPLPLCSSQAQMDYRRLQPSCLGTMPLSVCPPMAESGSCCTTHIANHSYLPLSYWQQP
The assay can be described thus: Human c-mpl-Ba/F3 cell growth test. The format is cell-based. The conditions noted are these: for Emax / Efficacy: maximum cell growth activity; for Emax: read-out: Efficacy. The procedure:
(i) Human c-mpl-Ba/F3 Cell Growth Test
In a 96-well microplate, 2×10^5 cells/ml of human c-mpl-Ba/F3 cells were cultured at 37° C. in 10% fetal bovine serum-containing RPMI1640 medium (100 μl/well) containing each test compound at each concentration. After 24 hours from the start-up of culture, 10 μl/well of WST-1/1-methoxy PMS (cell counting kit, Dojin) was added. Immediately after addition and 2 hours after addition, absorbance of A450/A650 was measured with a microplate reader (Model 3350: Bio-Rad), and an increase in absorbance for 2 hours was defined as a growth activity of each test compound.
pot: Concentration of each test compound at which to accelerate cell growth by 30% of a maximum cell growth activity of compound A (compound A and rhTPO in rhTPO)
Efficacy: Maximum cell growth activity of each test compound when a maximum cell growth activity of compound A (compound A and rhTPO in rhTPO) is defined as 100%.
Compound A refers to a compound in Example 9 of the foregoing Patent Document 10.

In assay [2] the target is T1, human c-mpl-Ba/F3 cells. Description: Mouse oral administration test: human c-mpl-Ba/F3 cell growth activity of a plasma after oral administration. As to conditions: male ICR mouse, plasma 2 h after administration, maximum activity of each test compound = 100%. The assay is classed as in vivo. The procedure:
(iii) Mouse Oral Administration Test
3 mg/kg or 10 mg/kg (100 mg/kg in Comparative Compounds 1 to 3) of a test compound dissolved or suspended in a 0.5% methylcellulose aqueous solution was orally administered to a male ICR mouse. After 2 hours from administration, a blood was sampled from the subabdominal large vein using 1/10-volume 3.8% sodium citrate as an anticoagulant. Centrifugation was performed at 12,000 rpm for 3 minutes. The resulting plasma was heated at 56° C. for 30 minutes, and added to a system of the human c-mpl-Ba/F3 cell growth test described in (i) such that the final concentration of the plasma reached 0.3%, 1% or 3% (10% in Comparative Compounds 1 to 3) to measure a cell growth activity. The cell growth activity (%) of each plasma was measured when the maximum cell growth activity of each test compound was defined as 100%.

[3] abbreviates: concentration at which cell growth is accelerated by 30% of the maximum cell growth activity of compound A, 24 h culture.
The mark [4] stands for this setting: maximum of compound A defined as 100%.
The mark [5] stands for this setting: 100 mg/kg p.o., dilution rate 10%.
Where [6] appears, read: concentration at which cell growth is accelerated by 30% of the maximum cell growth activity of rhTPO (applies to compound A and rhTPO).
The mark [7] stands for this setting: maximum of rhTPO defined as 100% (applies to compound A and rhTPO).
The mark [8] stands for this setting: 3 mg/kg p.o., dilution rate 0.3%.

Where two headings read alike, the source gives them in different places.

For the compound `O=C1NC(=S)S/C1=C\c1ccc(C(=O)Nc2nc(-c3ccc(Cl)c(Cl)c3)cs2)cc1` [Comparative Compound 1, reference compound], the Pot on human c-mpl-Ba/F3 cells [1] (setting [3]) is 4.4 nM. The Emax on human c-mpl-Ba/F3 cells [1] (setting [4]) was determined as 101%. In addition, on human c-mpl-Ba/F3 cells [2] (setting [5]), the Cell growth activity was below 10%.
In turn, `O=C(O)/C(Cl)=C/c1ccc(C(=O)Nc2nc(-c3ccc(Cl)c(Cl)c3)cs2)cc1` [Comparative Compound 2, reference compound] gave a Pot at human c-mpl-Ba/F3 cells [1] (setting [3]) of 2.1 nM. The Emax on human c-mpl-Ba/F3 cells [1] (setting [4]) worked out at 96%. The compound further gave a Cell growth activity at human c-mpl-Ba/F3 cells [2] (setting [5]) below 10%.
The matching figures for `Cc1sc(NC(=O)c2ccc(/C=C(\Cl)C(=O)O)cc2)nc1-c1cccc(C(F)(F)F)c1` [Comparative Compound 3, reference compound]: 6.9 nM, 96% and below 10%.
As for `COc1cc(C(=O)Nc2nc(-c3ccc(F)cc3)c(N3CCN(C4CCCCC4)CC3)s2)ccn1` [Comparative Compound 4, reference compound], the Pot at human c-mpl-Ba/F3 cells [1] (setting [3]) amounted to 251 nM. For the same compound, the Emax on human c-mpl-Ba/F3 cells [1] (setting [4]) amounted to 95%.
`O=C(Nc1nc(-c2cc(Cl)cs2)c(N2CCN(C3CCCCC3)CC2)s1)c1ccc(OCCO)c(Cl)c1` [Compound A, reference compound] returned a Pot at human c-mpl-Ba/F3 cells [1] (setting [6]) of 10 nM. The Emax at human c-mpl-Ba/F3 cells [1] (setting [7]) came out at 87%.
Consider `CN(C)Cc1sc(NC(=O)c2cnc(N3CCC(C(=O)O)CC3)c(Cl)c2)nc1-c1cc(Cl)cs1` [Example 65, 1-(3-chloro-5-{[4-(4-chlorothiophen-2-yl)-5-(dimethylaminomethyl)thiazol-2-yl]carbamoyl}-2-pyridyl)piperidine-4-carboxylic acid], for which, on human c-mpl-Ba/F3 cells [1] (setting [3]), the Pot is recorded as 4.3 nM. Also, at human c-mpl-Ba/F3 cells [1] (setting [4]), the Emax is 114%. Also, the Cell growth activity entry on human c-mpl-Ba/F3 cells [2] (3 mg/kg p.o., dilution rate 3%) is “≧80%”.
In turn, `O=C(Nc1nc(-c2cc(Cl)cs2)c(CN2CCCCCC2)s1)c1cnc(N2CCC(C(=O)O)CC2)c(Cl)c1` [Example 84, 1-(5-{[5-(azepan-1-ylmethyl)-4-(4-chlorothiophen-2-yl)thiazol-2-yl]carbamoyl}-3-chloro-2-pyridyl)piperidine-4-carboxylic acid] came in with a Pot on human c-mpl-Ba/F3 cells [1] (setting [3]) of 4.2 nM. Besides, on human c-mpl-Ba/F3 cells [1] (setting [4]), the Emax turned out to be 103%. For the same compound, at human c-mpl-Ba/F3 cells [2] (3 mg/kg p.o., dilution rate 1%), the Cell growth activity result is given as “≧80%”.
At human c-mpl-Ba/F3 cells [1] (setting [3]), `O=C(Nc1nc(-c2cc(Cl)cs2)c(CN2CCCCCCC2)s1)c1cnc(N2CCC(C(=O)O)CC2)c(Cl)c1` [Example 85] had a Pot of 3.3 nM. For the same compound, the Efficacy on human c-mpl-Ba/F3 cells [1] (setting [4]) was found to be 107%. The Cell growth activity result on human c-mpl-Ba/F3 cells [2] (3 mg/kg p.o., dilution rate 1%) is recorded as “≧80%”.
With `CN(Cc1sc(NC(=O)c2cnc(N3CCC(C(=O)O)CC3)c(Cl)c2)nc1-c1cc(Cl)cs1)C1CCCCC1` [Example 90, 1-{3-chloro-5-[(4-(4-chlorothiophen-2-yl)-5-{[cyclohexyl(methyl)amino]methyl}thiazol-2-yl)carbamoyl]-2-pyridyl}piperidine-4-carboxylic acid], the Pot at human c-mpl-Ba/F3 cells [1] (setting [3]) was found to be 2.0 nM. The Emax on human c-mpl-Ba/F3 cells [1] (setting [4]) was 94%. For the same compound, the Cell growth activity entry on human c-mpl-Ba/F3 cells [2] (setting [8]) was “≧80%”.
In the case of `CN(Cc1sc(NC(=O)c2cnc(N3CCC(C(=O)O)CC3)c(Cl)c2)nc1-c1cc(Cl)cs1)C1CC1` [Example 101, 1-{3-chloro-5-[(4-(4-chlorothiophen-2-yl)-5-{[cyclopropyl(methyl)amino]methyl}thiazol-2-yl)carbamoyl]-2-pyridyl}piperidine-4-carboxylic acid], the Pot at human c-mpl-Ba/F3 cells [1] (setting [3]) amounted to 3.1 nM. On human c-mpl-Ba/F3 cells [1] (setting [4]), the Emax worked out at 108%. The compound also yielded a Cell growth activity on human c-mpl-Ba/F3 cells [2] (3 mg/kg p.o., dilution rate 1%) of 76%.
As to `C[C@@H]1CCCN1Cc1sc(NC(=O)c2cnc(N3CCC(C(=O)O)CC3)c(Cl)c2)nc1-c1cc(Cl)cs1` [Example 107, 1-{3-chloro-5-[(4-(4-chlorothiophen-2-yl)-5-{[(2R)-2-methylpyrrolidin-1-yl]methyl}thiazol-2-yl)carbamoyl]-2-pyridyl}piperidine-4-carboxylic acid], the Pot at human c-mpl-Ba/F3 cells [1] (setting [3]) was 1.5 nM. Further, the Emax on human c-mpl-Ba/F3 cells [1] (setting [4]) stood at 112%.
At human c-mpl-Ba/F3 cells [1] (setting [3]), `C[C@H]1CCN(Cc2sc(NC(=O)c3cnc(N4CCC(C(=O)O)CC4)c(Cl)c3)nc2-c2cc(Cl)cs2)C1` [Example 109, 1-{3-chloro-5-[(4-(4-chlorothiophen-2-yl)-5-{[(3S)-3-methylpyrrolidin-1-yl]methyl}thiazol-2-yl)carbamoyl]-2-pyridyl}piperidine-4-carboxylic acid] registered a Pot of 3.9 nM. Further, at human c-mpl-Ba/F3 cells [1] (setting [4]), the Emax was determined as 95%. Moreover, on human c-mpl-Ba/F3 cells [2] (3 mg/kg p.o., dilution rate 1%), the Cell growth activity was found to be 59%.
Consider `CO[C@@H](C)CN(C)Cc1sc(NC(=O)c2cnc(N3CCC(C(=O)O)CC3)c(Cl)c2)nc1-c1cc(Cl)cs1` [Example 111, 1-{3-chloro-5-[(4-(4-chlorothiophen-2-yl)-5-{[[(2S)-2-methoxypropyl](methyl)amino]methyl}thiazol-2-yl)carbamoyl]-2-pyridyl}piperidine-4-carboxylic acid], for which the Pot on human c-mpl-Ba/F3 cells [1] (setting [3]) worked out at 6.0 nM. For the same compound, the Emax on human c-mpl-Ba/F3 cells [1] (setting [4]) turned out to be 87%.
In the case of `CCCCN(C)Cc1sc(NC(=O)c2cnc(N3CCC(CO)CC3)c(Cl)c2)nc1-c1cc(Cl)cs1` [Example 150, N-[5-{[butyl(methyl)amino]methyl}-4-(4-chlorothiophen-2-yl)thiazol-2-yl]-5-chloro-6-[4-(hydroxymethyl)piperidino]nicotinamide], at human c-mpl-Ba/F3 cells [1] (setting [3]), the Pot was found to be 3.6 nM. Further, at human c-mpl-Ba/F3 cells [1] (setting [4]), the Emax stood at 102%. Further, the Cell growth activity on human c-mpl-Ba/F3 cells [2] (setting [8]) worked out at 28%.
Take `C[C@@H]1CCCN1Cc1sc(NC(=O)c2cnc(N3CC(CC(=O)O)C3)c(Cl)c2)nc1-c1cc(Cl)cs1` [Example 222, (1-{3-chloro-5-[(4-(4-chlorothiophen-2-yl)-5-{[(2R)-2-methylpyrrolidin-1-yl]methyl}thiazol-2-yl)carbamoyl]-2-pyridyl}azetidin-3-yl)acetic acid]: the Pot on human c-mpl-Ba/F3 cells [1] (setting [3]) worked out at 4.4 nM. The Emax on human c-mpl-Ba/F3 cells [1] (setting [4]) worked out at 102%.
In the case of `C[C@@H]1CCCN1Cc1sc(NC(=O)c2cnc(N(C)CCCC(=O)O)c(Cl)c2)nc1-c1cc(Cl)cs1` [Example 226, 4-[{3-chloro-5-[(4-(4-chlorothiophen-2-yl)-5-{[(2R)-2-methylpyrrolidin-1-yl]methyl}thiazol-2-yl)carbamoyl]-2-pyridyl}(methyl)amino]butyric acid], the Pot on human c-mpl-Ba/F3 cells [1] (setting [3]) was determined as 4.6 nM. Further, at human c-mpl-Ba/F3 cells [1] (setting [4]), the Emax is 88%.
In the same order, the values of `CC(C)N(C)Cc1sc(NC(=O)c2cnc(N(C)CCCC(=O)O)c(Cl)c2)nc1-c1cc(Cl)cs1` [Example 227, 4-[{3-chloro-5-[(4-(4-chlorothiophen-2-yl)-5-{[isopropyl(methyl)amino]methyl}thiazol-2-yl)carbamoyl]-2-pyridyl}(methyl)amino]butyric acid] are 3.2 nM and 88%.
Consider `C[C@H]1CCCN1Cc1sc(NC(=O)c2cnc(N3CCC(C(=O)O)CC3)c(F)c2)nc1-c1cc(Cl)cs1` [Example 314, 1-{5-[(4-(4-chlorothiophen-2-yl)-5-{[(2S)-2-methylpyrrolidin-1-yl]methyl}thiazol-2-yl)carbamoyl]-3-fluoro-2-pyridyl}piperidine-4-carboxylic acid], for which the Cell growth activity at human c-mpl-Ba/F3 cells [2] (3 mg/kg p.o., dilution rate 3%) was found to be 52%.
The compound “rhTPO: thrombopoietin (TPO), a c-Mpl ligand; a protein” had a Pot in the assay with human c-mpl-Ba/F3 cells [1] (setting [6]) of 0.012 nM. Besides, the Efficacy with human c-mpl-Ba/F3 cells [1] (setting [7]) is 100%.

(Values after patent US7361658B2, “2-acylaminothiazole derivative or salt thereof” (Astellas Pharma Inc., priority 2003, dated 2008).)
